Source: patent US8227431B2, “Nucleoside derivatives” (Hetero Drugs Limited, priority 2008, dated 2012)

Columns and labels:
[1] = tested on: HIV-1-93IN101; assay: P24 assay (viral p24 ELISA); type: cell-based; conditions: Cell line Supt-1, Virus HIV-1-93IN101; for IC50: Human immunodeficiency virus 1, SUP-T1, p24 ELISA about 72 hours post infection, read-out: Inhibitory concentration 50 (IC50)
Method: Viral p24 was measured after about 72 hours of post infection in presence of drugs using ABL p24 ELISA kit. 0.5 millions cells/well were taken into the 24 well plates and added increasing concentrations of drugs. 1 ng/ml of HIV-1 virus was added to each well and incubated for overnight at 37° C. (37° C. and 5% CO2). After about 16 hours incubation media was changed and added fresh media and cultured for about 72 hours. P24 was quantified at 4th day of post-infection using ABL kit according to manufacturer's instructions. The above described examples were tested in the two biological assays as described above and some compounds were found following results as shown in table 2. Cell line Supt-1; Virus: HIV-1-93IN101

[2] = Cell viability assay (MTT); type: cell-based; conditions: human, Supt-1 cells, Cell line Supt-1, about 14 hours incubation, read-out: Cytotoxicity concentration (CC50)
Method: Reduction of 3-(4,5-dimethylthiozol-2-yl)-2,5-diphenyltetrazolium bromide (MTT, sigma) is chosen as an optimal mend point of cell viability measurement (Mosmann, 1983; Cole, 1986; alley et al., 1988). Cells (0.2×10^6 cells per well) were seeded in 96-well plates. Increasing concentrations of compound were added to the cells and incubated at 37° C. for about 14 hours in a CO2 Incubator with 5% CO2. The media was replaced with a fresh growth medium along with 20 μL of 5 mg/ml 3-(4,5-dimethylthiazol-2-yl)-2,5-diphenyltetrazolium bromide (MTT, Sigma). After incubation for about 4 hours in a humidified atmosphere, the media was removed and 200 μL of 0.1N acidic isopropyl alcohol was added to the wells to dissolve the MTT-formazan crystals. The absorbance was recorded at 570 nm, immediately after the development of purple colour. Each experiment was conducted in triplicate and the data are represented as average, with standard deviation. Percent viability of the cells was computed with reference to the absorbance of reduced MTT in the experiments conducted in absence of any compound. The above described examples were tested in the two biological assays as described above and some compounds were found following results as shown in table 2. Cell line Supt-1; Virus: HIV-1-93IN101

| Compound | Therapeutic Index (TI): CC50/IC50 [1] | IC50 [1] [mM] | CC50 [2] [mM] |
| --- | --- | --- | --- |
| C[C@]1(F)[C@H](n2ccc(N)nc2=O)O[C@H](CO)[C@@]1(C)O [Example 23, 4-amino1-((2R,4R)-3-fluoro-tetrahydro-4-hydroxy-5-(hydroxymethyl)-3,4-dimethylfuran-2-yl)pyrimidin-2(1H)-one] | >1 | > 1 | > 1 |
| C[C@]1(F)[C@H](n2ccc(=O)[nH]c2=O)O[C@H](CO)[C@@]1(C)O [Example 22, 1-((2R,4R)-3-fluoro-tetrahydro-4-hydroxy-5-(hydroxymethyl)-3,4-dimethylfuran-2-yl)pyrimidine-2,4(1H,3H)-dione] | >1 | > 1 | > 1 |
| C[C@]1(F)C(n2cnc3c(N)ncnc32)O[C@H](CO)[C@]1(C)O (stereo partly drawn) [Example 2A, (2R,3S,4R)-5-(6-amino-9H-purin-9-yl)-4-fluoro-tetrahydro-2-(hydroxymethyl)-3,4-dimethylfuran-3-ol] | >1 | > 1 | > 1 |
| CC1(O)[C@@H](CO)OC(n2cnc3c(NC4CC4)ncnc32)[C@]1(C)F (stereo partly drawn) [Example 16, (2R,4R)-5-(6-(cyclopropylamino)-9H-purin-9yl)-4-fluoro-tetrahydro-2-(hydroxymethyl)-3,4-dimethylfuran-3-ol] | 1.4 | 0.3 | 0.424 |
